The text below walks through data of PMC8569811, “The Nonphysiological Reductant Sodium Dithionite and [FeFe] Hydrogenase: Influence on the Enzyme Mechanism” (Journal of the American Chemical Society, 2021).

What is called pKd is the negative decadic logarithm of the Kd, by convention in mol/L. A lower pKd goes with a large Kd.

pKd: −log10 of the molar value.

Test [1] addresses T1, CrHydA1 ([FeFe] hydrogenase) (Chlamydomonas reinhardtii, UniProt Q9FYU1).
T1 construct: gene hyd1; CrHydA1^PDT (chemical variant with propane dithiolate bridging ligand in [2Fe]H)
T1 sequence (Q9FYU1 57-497): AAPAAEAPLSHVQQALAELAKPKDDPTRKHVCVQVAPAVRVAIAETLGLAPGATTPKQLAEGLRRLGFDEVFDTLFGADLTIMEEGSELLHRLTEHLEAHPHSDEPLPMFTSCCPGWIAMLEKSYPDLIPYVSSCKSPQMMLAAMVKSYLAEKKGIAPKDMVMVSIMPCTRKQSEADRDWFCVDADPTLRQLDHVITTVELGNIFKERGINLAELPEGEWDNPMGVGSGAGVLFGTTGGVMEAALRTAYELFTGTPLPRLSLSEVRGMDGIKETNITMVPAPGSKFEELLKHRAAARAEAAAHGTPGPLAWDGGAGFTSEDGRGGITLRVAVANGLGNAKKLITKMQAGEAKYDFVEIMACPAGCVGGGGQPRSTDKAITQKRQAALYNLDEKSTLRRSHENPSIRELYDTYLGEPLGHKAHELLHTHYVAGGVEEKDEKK
Put plainly: IR titration with Na2SO3 (source of SO2) at pH […] and […] fit. It counts as binding.

For test [2], the target named is T2, CpHydA1 ([FeFe] hydrogenase HydA1) (Clostridium pasteurianum, UniProt P29166).
T2 sequence (P29166 1-574): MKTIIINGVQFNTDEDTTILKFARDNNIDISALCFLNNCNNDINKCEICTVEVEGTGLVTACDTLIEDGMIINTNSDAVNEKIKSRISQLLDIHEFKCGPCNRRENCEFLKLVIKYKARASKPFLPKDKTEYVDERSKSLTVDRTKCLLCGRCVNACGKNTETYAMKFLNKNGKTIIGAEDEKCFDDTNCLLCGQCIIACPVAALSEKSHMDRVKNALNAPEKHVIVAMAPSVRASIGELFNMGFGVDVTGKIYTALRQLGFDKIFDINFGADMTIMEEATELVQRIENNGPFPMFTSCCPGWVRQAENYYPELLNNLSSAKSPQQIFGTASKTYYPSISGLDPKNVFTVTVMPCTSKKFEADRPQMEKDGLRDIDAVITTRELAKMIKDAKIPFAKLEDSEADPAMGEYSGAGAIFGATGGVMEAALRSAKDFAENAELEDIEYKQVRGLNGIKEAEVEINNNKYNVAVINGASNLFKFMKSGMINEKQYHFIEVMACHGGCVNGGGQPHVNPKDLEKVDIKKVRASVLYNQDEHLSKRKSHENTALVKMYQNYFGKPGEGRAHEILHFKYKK
In words: IR spectroscopy, conversion to HoxH with Na2SO3 at low pH. The class given is binding.

For the compound `O=S=O` [SO2], the negative logarithm of the Kd (pKd) in test [1] was approximately 6.30. Also, in test [2], the “IR spectroscopy, conversion to HoxH with Na2SO3 at low pH” value was “SO2 binding caused formation of HoxH not only with CrHydA1 but also with the bacterial enzymes CpHydA1 and DdHydAB”.
